Measured values taken from paper PMC6269892, “Ligand Binding Affinities of Arctigenin and Its Demethylated Metabolites to Estrogen Receptor Alpha” (Molecules, 2013).
pIC50: −log10 of the molar value.

Tests used:
[1] = biological target: T1, estrogen receptor alpha (ERalpha) (Homo sapiens, UniProt P03372); assay: Estrogen-R (α) competitor screening kit, ligand binding screen; conditions: for pIC50: ER alpha competitor binding, non-linear regression, one site competition; for RBA (Relative binding affinity): IC50 of estradiol divided by IC50 of the tested compound, multiplied by 100, Estradiol = 100; for % Binding to ERα: mean ± S.E.M., n = 4
T1 construct: purchased Wako Chemicals (Osaka, Japan)
T1 sequence (P03372 1-595): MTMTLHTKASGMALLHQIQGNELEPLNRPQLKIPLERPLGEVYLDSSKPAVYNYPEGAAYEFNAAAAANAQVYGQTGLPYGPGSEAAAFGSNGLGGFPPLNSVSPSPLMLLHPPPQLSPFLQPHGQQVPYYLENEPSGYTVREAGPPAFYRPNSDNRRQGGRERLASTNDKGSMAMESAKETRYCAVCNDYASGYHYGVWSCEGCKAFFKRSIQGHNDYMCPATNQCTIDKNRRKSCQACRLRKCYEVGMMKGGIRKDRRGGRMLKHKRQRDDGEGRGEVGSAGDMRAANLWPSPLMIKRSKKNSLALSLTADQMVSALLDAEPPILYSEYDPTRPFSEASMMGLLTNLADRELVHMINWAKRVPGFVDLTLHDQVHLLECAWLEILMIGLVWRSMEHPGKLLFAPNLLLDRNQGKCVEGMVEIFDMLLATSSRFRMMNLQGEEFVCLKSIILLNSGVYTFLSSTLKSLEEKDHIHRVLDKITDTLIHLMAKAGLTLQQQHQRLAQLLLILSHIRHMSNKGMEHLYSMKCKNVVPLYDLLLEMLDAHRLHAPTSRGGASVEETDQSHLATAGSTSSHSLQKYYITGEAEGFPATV
Description: An estrogen-R (α) competitor screening kit was purchased from Wako Chemicals (Osaka, Japan). The assay depends on the competition between the samples applied in different concentrations and the labeled estrogen mixture. The amount of the ligand that binds to the ERalpha coated on the microplate well is determined by the dynamic equilibrium among all the ligand concentrations in the mixture, the difference of their binding affinities to the receptor, and the incubation time. Therefore, the reduction in fluorescence intensities from the labeled estrogen retained is an indication of the affinity of the added compounds to the estrogen receptor. (−)-Arctigenin (8) and its metabolites were tested in 10^−5, 10^−4, 5 × 10^−4, and 5 × 10^−3 M concentrations. […] The results were calculated as percentages of the negative control.
Each set of experiments was repeated at least three times. Values are expressed as mean ± S.E.M. One-way analysis of variance followed by Dunnett’s test was used for statistical analysis. The IC50 was calculated using a non-linear regression analysis (for one site competition).

[2] = system: MCF-7 human breast cancer cells; design: method as in earlier work; conditions: estradiol-mediated proliferative characteristics; ref 10 (Xie et al.); cited from earlier work
[3] = compound at 5 × 10^−3 M, percentage of the negative control
[4] = compound at 5 × 10^−4 M, percentage of the negative control
[5] = compound at 10^−4 M, percentage of the negative control
[6] = compound at 10^−5 M, percentage of the negative control (labeled estrogen mixture)

SMILES	pIC50 [1]	RBA (Relative binding affinity) [1]	% Binding to ERα [1, 3]	% Binding to ERα [1, 4]	% Binding to ERα [1, 5]	% Binding to ERα [1, 6]	proliferation of MCF-7 human breast cancer cells [2]
COc1cc(C[C@H]2C(=O)OC[C@@H]2Cc2ccc(O)c(O)c2)ccc1O [Compound 2, (2R,3R)-2-(4-hydroxy-3-methoxybenzyl)-3-(3,4-dihydroxybenzyl)-butyrolactone]	3.10	2.5 × 10^−3	67.7 ± 0.2 %	44.4 ± 0.9 %	13.5 ± 2.0 %	1.4 ± 1.2%	–
COc1cc(C[C@H]2COC(=O)[C@@H]2Cc2ccc(O)c(OC)c2)ccc1O [Compound 5, (−)-matairesinol]	< 2.30	–	17.6 ± 1.1 %	0.1 ± 2.6%	18.1 ± 9.0 %	0.4 ± 0.9%	–
O=C1OC[C@H](Cc2ccc(O)c(O)c2)[C@H]1Cc1ccc(O)c(O)c1 [Compound 1, (−)-dihydroxyenterolactone]	2.80	1.2 × 10^−3	65.3 ± 0.2 %	34.8 ± 1.3 %	13.7 ± 0.7 %	5.6 ± 3.3 %	–
COc1cc(C[C@H]2C(=O)OC[C@@H]2Cc2ccc(OC)c(OC)c2)ccc1O [Compound 8, (−)-arctigenin]	< 2.30	–	19.4 ± 1.5 %	−4.1 ± 3.5%	−4.3 ± 0.8%	−1.4 ± 0.8%	–
COc1ccc(C[C@H]2COC(=O)[C@@H]2Cc2ccc(O)c(O)c2)cc1OC [Compound 6]	2.60	7.9 × 10^−4	64.5 ± 0.2 %	16.6 ± 0.9 %	1.4 ± 2.4%	−2.3 ± 0.9%	stimulated the proliferation
COc1cc(C[C@H]2COC(=O)[C@@H]2Cc2ccc(O)c(O)c2)ccc1O [Compound 3]	2.72	1.0 × 10^−3	67.5 ± 0.2 %	25.8 ± 0.8 %	14.1 ± 1.3 %	2.2 ± 1.6%	–
COc1ccc(C[C@H]2COC(=O)[C@@H]2Cc2ccc(O)c(OC)c2)cc1O [Compound 7]	< 2.30	–	30.1 ± 1.7 %	−4.2 ± 0.8%	1.2 ± 1.7%	3.6 ± 0.6%	–
COc1ccc(C[C@H]2COC(=O)[C@@H]2Cc2ccc(O)c(O)c2)cc1O [Compound 4]	2.60	7.9 × 10^−4	63.2 ± 0.3 %	19.6 ± 2.3 %	−0.5 ± 0.7%	1.0 ± 1.4%	–
